These results are taken from PMC10780202, “Systemic Treatment with Fas-Blocking Peptide Attenuates Apoptosis in Brain Ischemia” (International Journal of Molecular Sciences, 2024).

One data set has as its system hypoxic-N2a cells. Briefly: FasL-induced apoptosis in hypoxic N2a cells, Annexin V-PE staining. The data set is classed as cell-based, mouse. The settings on record: hypoxic N2a cells treated with FasL, then peptide; for effect on Fas-mediated apoptosis / cell death compared to control: Fig 1B,C, three independent experiments. Here is the method:
Figure 1 The inhibitory effect of FBP or leptin-PEG-FBP (L-P-F) on FasL-induced apoptosis in hypoxic-N2a. (A) Schematic illustration of the L-P-F peptide synthesis. (B,C) The N2a cells were cultured in a hypoxic condition in the presence of membrane-bound soluble FasL (5 nM) for 6 h, as described in the Methods section. The cells were then treated with 300 μM of the indicated peptides for 6 h and examined for Annexin V-PE staining. (B) Representative histograms illustrate the percentage of apoptosis with the peptide treatments, depicting live cells (in black) and apoptotic cells (in red). (C) Bar graph represents the percentage of Annexin V positive cells with the peptide treatments. Normoxia describes cells cultured in normal oxygen conditions. Hypoxia describes cells cultured in hypoxic conditions. The bar graph indicates the average ± SD of three independent experiments. The data in (C) was analyzed using Mann–Whitney U test (* p < 0.05; ns: not-significant). TEXT PRINTED IN THE PICTURE: (B) Mock: Annexin V: 86.4 | (B) ctrl-FBP: Annexin V: 82.0 | (B) Leptin: Annexin V: 83.5 | (B) FBP: Annexin V: 54.0 | (B) L-P-F: Annexin V: 56.5 DOUBTS OF THE COPYIST ABOUT THIS PICTURE: Panel B: the gate numbers have no unit or measure printed beside them; 'Annexin V' comes from the axis label printed once at the edge of the panel. / Panel B, Mock: this is a control treatment, not a substance; it is included because a gate value is printed with it. / Small print in panel B, so these digits are not certain: Mock 86.4, ctrl-FBP 82.0, Leptin 83.5, FBP 54.0, L-P-F 56.5.
To evaluate the effect of leptin-PEG-FBP on Fas-mediated apoptosis, hypoxic Neuro2a mouse neuroblastoma (N2a) cells were treated with FasL ([…]), followed by a treatment with the peptides indicated in Figure 1B.
Neuro2a mouse neuroblastoma cells (N2a) were obtained from ATCC (Rockville, MD) and cultured in Dulbecco’s modified Eagle’s medium (DMEM, Gibco) containing 10% fetal bovine serum, penicillin (100 IU/mL), and streptomycin (100 μg/mL). To mimic the in vitro ischemia/reperfusion environment, N2a cells were maintained in a hypoxic condition (94% N2, 5% CO2, 1% O2, 37 °C) in oxygen glucose deprivation media (OGD, Life Technologies, Carlsbad, CA, USA) for 24 h. The cells were then reoxygenated in DMEM supplemented with 10% FBS (5% CO2, 20% O2, 37 °C) for another 24 h and cultured in Dulbecco’s modified Eagle’s medium (DMEM) (Gibco) containing high glucose, supplemented with 10% calf serum and 1% penicillin-streptomycin. To analyze the functional effects of leptin-PEG-FBP, normoxia- and hypoxia-induced N2a cells were seeded in a six-well plate at 2 × 10^5/well with serum-free DMEM and treated with leptin-PEG-FBP at 1 mM for 6 h followed by exposure to a soluble Fas ligand (5 nM). […]

The subject of another data set is Jurkat cells. Briefly: FasL-mediated apoptosis in Jurkat cells, Annexin V staining (effect of PEG size). The data set is classed as cell-based. As to conditions: membrane-bound soluble FasL 20 ng/ml, 3 hr, peptides 300 µM, FasL alone approximately 40% apoptosis, three independent experiments, Fig S1. The source says: In a prior study, we observed that the Fas-blocking peptide (FBP) effectively disrupted Fas–FasL interactions, thereby inhibiting Fas-mediated apoptosis both in vitro and in vivo when delivered intranasally. In this study, we explored the impact of FBP through the clinically relevant systemic route of delivery. To conjugate FBP with leptin, a brain-targeting peptide that effectively penetrates the BBB, we employed polyethylene glycol (PEG) as a linker. We initially evaluated the toxicity of PEG of various sizes in Jurkat cells. The treatment of Jurkat cells with membrane-bound FasL induced approximately 40% apoptosis compared to non-FasL (normal) cells. […] Based on our findings, we conjugated PEG-2K to FBP (PEG-FBP) and then linked it with the leptin peptide. […] (Figure S2). The conjugation schematic is illustrated in Figure 1A.
Figure S1. Effect of PEGylation length on apoptosis inhibition by FBP peptides. ( A) Apoptosis in Jurkat cells was assessed 3 hr post- treatment with membrane-bound soluble FasL (20 ng/ml), with and without peptides at a concentration of 300 µM using Annexin V staining. (B-C) Bar graphs illustrating the percentage of cells in early (B) and late (C) apoptosis. The compar ison includes non- treated, ctrl- FBP, FBP, and various PEGylated FBP (1K, 2K, 3.4K, 5K, 10K) after FasL treatment in Jurkat cells. […]

In data set [1] the test system is MCAO rat model. Briefly: TUNEL assay of brain sections of MCAO rats. It is filed as in vivo. The settings on record: 48 h post-MCAO. As to the method: Ischemic stroke conditions in rat MCAO models lead to brain damage primarily through apoptosis. To assess the therapeutic effects of leptin-PEG-FBP on Fas-mediated apoptosis, we administrated 5 mg/kg of FBP systemically at 3 h and 6 h post-MCAO. At 48 h post-MCAO, we conducted necropsy to estimate the protein levels of Fas and cleaved caspase-3 in the brain samples. Ischemic stroke induced an elevated level of Fas and cleaved caspase-3, similar to the PBS-treated MCAO rats. […] Approximately 52% of cells were TUNEL-positive in the PBS-treated group, 55% in the PEG-FBP, and 47% in the leptin-treated group (Figure 5B). […]
Figure 5 Leptin-PEG-FBP attenuates apoptosis in the MCAO rat model. […] (A) Representative Western blots and quantification of protein expression for Fas and cleaved caspase-3 in the brain of […] at 48 h post-MCAO. […] (B) Representative microscopy images of TUNEL-stained brain sections (red) and quantification of TUNEL-positive cells in the ischemic region of MCAO after necropsy. (C) Representative microscopy images of cleaved caspase-3-stained brain sections (green) and quantification of positive cells in the ischemic region of MCAO after necropsy. […] Data represent mean ± SD (n = 3 animals per group) and were analyzed using Mann–Whitney U test. […]

For data set [2] the following is noted: rat, in vivo, iv.
Procedure: Figure S2. Leptin peptide-mediated brain delivery in rats. Biodistribution (left panel)
of A647-conjugated peptides delivered intravenous (n=3) in normal rats. Brain, lung,
liver, spleen and kidney were examined 24 hr post- inoculation. Rats were treated with
RV -M AT , the control peptide and the leptin peptide. Cumulative data (right panel)
show relative fluorescence intensities measured in arbitrary pixel values for examined
tissues. The measurements are compared to the n ormal groupand are based on three
(1 picture or pasted object on this page, not shown here)
For data set [3] the following is noted: rat, in vivo.
Procedure: To explore the feasibility of ischemic-specific FBP delivery, we administered Alexa^647-conjugated peptides to a rat middle cerebral artery occlusion (MCAO) ischemic stroke model. The peptides were delivered via the intravenous route (2.5 mg/kg) and the brain and peripheral organs were examined 24 h post-inoculation. […] Next, we conducted an in-depth analysis to validate the localization through confocal microscopy.
Rats underwent middle cerebral artery occlusion, followed by the administration of the indicated Alexa^647-labelled peptides (2.5 mg/kg, i.v.). Organs were harvested 24 h post-inoculation and imaged on Kodak imaging station. […] Control mice were inoculated with PBS.
Acute cerebral ischemia was produced using a 1 h occlusion of the right middle cerebral artery (MCAO) in Sprague–Dawley rats weighing 280–320 g (Orient Bio, Seoul, Republic of Korea), as previously described [76]. […]
(§3) For bio-distribution studies, Alexa^647-conjugated peptides were intravenously (IV) administered at 2.5 mg/kg. […] Fluorescence was analyzed at designated time points. After 12 h inoculation, fluorescence was measured in the brain, lung, liver, spleen, and kidney using image station (Kodak, Stamford, CT, USA).
Data set [4] deals with MCAO rat model. In words: Nissl staining, infarction volume in MCAO rats. It is filed as in vivo. The settings on record: 5 mg/kg i.v., 48 h, PBS group around 45%, Fig 6B. Here is the method:
(§1) The induction of apoptosis in the penumbra after MCAO results in brain damage, leading to the formation of infarcts or areas of tissue damage. To examine the impact of leptin-PEG-FBP on brain infraction, we conducted triphenyltetrazolium chloride (TTC) staining at 48 h post-treatment.
(§2) Figure 6 Improvement of MCAO-induced infarction and histopathological changes with leptin-PEG-FBP treatment. MCAO rats were systemically treated with indicated peptides (5 mg/kg, i.v.) at […]. (A) Brain slices stained with TTC after necropsy. Quantitative analysis of infarction is shown on the right. Data represent mean ± SD (n = 5 animals per group). (B) Images of Nissl-stained brain slices (left) and quantitative analysis of infarction volume on the right. (C) Representative images of hematoxylin and eosin (H&E) brain sections from normal or MCAO-subjected animals after treatment. Data were analyzed using Mann–Whitney U test. Data represent the mean ± SD (* […]; ** p < 0.01; ns: not-significant).
Infarcted brain volume was analyzed using Nissl staining. The OCT-embedded brain samples for cryosection were fixed using 4% PFA at room temperature and subjected to 0.1% crystal violet solution following standard protocol. The stained sections were cover-slipped and blindly pictured using full-screening scanner. The infarcted volume was calculated using Image J software version 1.54d.

The conditions of data set [5]: mouse, in vivo, iv, 2.5 mg/kg.
Procedure: To confirm the specificity of leptin-mediated FBP delivery to the brain, we systemically administered Alexa^647-conjugated leptin alone, PEG-FBP, and leptin-PEG-FBP in leptin receptor-deficient db/db mice subjected to photothrombosis (Figure 3A).
Wildtype and leptin receptor-deficient (db/db) mice were subjected to photothrombotic stroke, followed by administration of the indicated peptides (2.5 mg/kg Alexa^647-labelled peptides, i.v.). Organs were collected at 12 h post-delivery and imaged on Kodak imaging station. (A,B) Representative images and quantification of fluorescence intensities after necropsy. Control mice were inoculated with PBS. Fluorescence intensities measured in arbitrary pixel values were normalized to fluorescence intensities in the PBS-treated group. The data represent mean ± SD (n = 5 per group). The data in (B) were analyzed using Mann–Whitney U test (* p < 0.05; ** p < 0.01).
as §3
The test system of data set [6] is MCAO rat model. Briefly: TTC staining, infarction in MCAO rats. As to conditions: 5 mg/kg i.v., 48 h post-MCAO, n = 5, PBS group 37%, Fig 6A. It is filed as in vivo. Here is the method:
as §1, §2
Pathology in brain tissues was analyzed by staining 2 mm brain slices in 2% 2,3,5-tryphenyltetrazolium chloride (TTC, Sigma Aldrich, St. Louis, MO, USA) for 15 min at 37 °C. The infarcted volume was calculated after fixation using Image J software version 1.54d, as described.

Data set [7] relates to MCAO rat model. Briefly: H&E histology of brain sections of MCAO rats. The data set is classed as in vivo. As to conditions: 5 mg/kg i.v., 48 h, Fig 6C. Here is the method:
as §1, §2
Rats were sacrificed and perfused with PBS. Brains were carefully removed, embedded in OCT compound (Sakura Finetek, Alphen aan den Rijn, The Netherlands), rapidly cryopreserved in frigid isopentane chilled with liquid nitrogen, and stored at −80 °C until the subsequent sectioning procedure. […]

As to YCDEHFCY [FBP], the “decrease in Annexin V positivity upon exposure to FasL” value in the data set with hypoxic-N2a cells (Fig 1B) was found to be 40%. In addition, the “effect on Fas-mediated apoptosis / cell death compared to control” value in the data set on hypoxic-N2a cells is recorded as “significantly reduced cell death”. Also, in the data set with Jurkat cells, the “effect on FasL-mediated apoptosis in Jurkat cells” value is reported as “significantly reduced FasL-mediated apoptosis”.
As to “YCNSTVCY [ctrl-FBP, control FBP peptide YCNSTVCY]”, the “effect on Fas-mediated apoptosis / cell death compared to control” value in the data set on hypoxic-N2a cells is “did not demonstrate a reduction”.
Consider “YQQVLTSLPSQNVLQIANDLENLRDLLHLLGGGC [leptin, 30 amino acid-long leptin-derived brain-targeting peptide with GGGC tail]”, for which the “effect on Fas-mediated apoptosis / cell death compared to control” value in the data set with hypoxic-N2a cells is listed as “did not demonstrate a reduction”. The “TUNEL-positive cells in the ischemic region” value with MCAO rat model [1] (5 mg/kg i.v. at 3 h and 6 h post-MCAO, confocal, n = 3, PBS group 52%, Fig 5B) is on record as roughly 47%. In the data set on MCAO rat model [1] (5 mg/kg i.v., Fig 5B,C), the “change in TUNEL and cleaved caspase-3 positive cells” value was “no significant changes”. In addition, the “delivery to the brain compared to negative control peptide RV-MAT” value in data set [2] is given as “successful delivery to the brain”. The “Alexa647-positive cells in brain sections, confocal microscopy” value in data set [3] was “strong Alexa^647 positive cells”. In addition, in the data set on MCAO rat model [4], the “infarction volume, Nissl staining” value is roughly 45%. Besides, the “brain delivery in leptin receptor-deficient db/db mice” value in data set [5] is reported as “did not bind to the brain”. For the same sequence, the “infarction volume, TTC staining” value with MCAO rat model [6] was determined as 32%. Besides, the “tissue damage in right hemisphere, H&E staining” value in the data set with MCAO rat model [7] is listed as “significant damage to the tissue morphology”.
